# According to patent US6737383B1, “Herbicidal oxadiazolidines” (priority 1999, dated 2004):
# Key:
# common poppy = test: Test E common poppy; assay type: in vivo, Papaver rhoeas; settings: Postemergence; for Plant response rating, Comnion poppy: Rate 125 g/ha
# Procedure: (§1) Compounds evaluated in this test were formulated in a non-phytotoxic solvent mixture which included a surfactant and applied to plants that were in the 1- to 4-leaf stage (postemergence application). A mixture of sandy loam soil and greenhouse potting mix in a 60:40 ratio was used for the postemergence test.
# (§2) Plantings of these crops and weed species were adjusted to produce plants of appropriate size for the postemergence test. All plant species were grown using normal greenhouse practices. Crop and weed species include annual bluegrass (Poa annua), blackgrass (Alopecurus myosuroides), black nightshade (Solanum nigra), chickweed (Stellaria media), common poppy (Papaver rhoeas), deadnettle (Lamium amplexicaule), downy brome (Bromus tectorum), field violet (Viola arvensis), galium (Galium aparine), green foxtail (Setaria viridis), Italian ryegrass (Lolium multiflorum), jointed goatgrass (Aegilops cylindrica), kochia (Kochia scoparia), lambsquarters (Chenopodium album), littleseed canarygrass (Phalaris minor), rape (Brassica napus), redroot pigweed (Amaranthus retroflexus), Russian thistle (Salsola kali), scentless chamomile (Matricaria inodora), spring barley (Hordeum vulgare), sugar beet (Beta vulgaris), sunflower (Helianthus annuus), ivyleaf speedwell (Veronica hederaefolia), spring wheat (Triticum aestivum), winter wheat (Triticum aestivum), wild buckwheat (Polygonum convolvulus), wild mustard (Sinapis arvensis), wild oat (Avena fatua), windgrass (Apera spica-venti) and winter barley (Hordeum vulgare).
# (§3) Treated plants and untreated controls were maintained in a greenhouse for approximately 21 to 28 days, after which all treated plants were compared to untreated controls and visually evaluated. […] A dash response (-) means no test result.
# littleseed canarygrass = test: Test E littleseed canarygrass; assay type: in vivo, Phalaris minor; settings: Postemergence
# Method in brief: (§4)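 Postemergence: spray at 1–4 leaf stage, soil 60:40 sandy loam:potting mix; solvent + surfactant formulation; greenhouse 21–28 d; visual injury vs untreated controls.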
# sugar beet = test: Test E sugar beet; assay type: in vivo, Beta vulgaris; settings: Postemergence
# Procedure: as §1, §2, §3
# sourgrass = test: Test D sourgrass; assay type: in vivo, Trichachne insularis; settings: Preemergence, 0 to 100 scale, 0 no injury, 100 complete control
# Description: Seeds, tubers, or plant parts of Alexandergrass (Brachiaria plantaginea), bermuda-grass (Cynodon dactylon), common pursiane (Portulaca oleracea), common ragweed (Ambrosia elatior), common groundsel (Senecio vulgaris), dallisgrass (Paspalum dilatatum), goosegrass (Eleusine indica), guineagrass (Panicum maximum), itchgrass (Rottboellia exaltata), Johnson grass (Sorghum halepense), large crabgrass (Digitaria sanguinalis), pitted morningglory (Ipomoea lacunosa), purple nutsedge (Cyperus rotundus), sandbur (Cenchrus echinatus), sourgrass (Trichachne insularis), Spanishneedles (Bidens bipinnata), surinam grass (Brachiaria decumbens) and tall mallow (Malva sylvestris) were planted into greenhouse pots of flats containing greenhouse planting medium. Plant species were grown in separate pots or individual compartments. Preemergence applications were made within one day of planting the seed or plant part.
# Test chemicals were formulated in a non-phytotoxic solvent mixture which included a surfactant and applied preemergence to the surface of the pot containing seeds in a sandy loam soil. Untreated control pots and treated pots were placed in the greenhouse for growth and visually evaluated for injury 14 to 21 days after herbicide application. Plant response ratings, summarized in Table C, are based on a 0 to 100 scale where 0 is no injury and 100 is complete control. […]
# ivyleaf morningglory = test: Test C postemergence ivyleaf morningglory; assay type: in vivo, Ipomoea hederacea; settings: 0 to 100 scale, 0 no effect, 100 complete control
# Procedure: as §1, with “grown for various periods of time before treatment” for “in the 1- to 4-leaf stage”
# (§5) Plantings of these crops and weed species were adjusted to produce plants of appropriate size for the postemergence test. All plant species were grown using normal greenhouse practices. Crop and weed species include arrowleaf sida (Sida rhombifolia), barnyardgrass (Echinochloa crus-galli), cocklebur (Xanthium strumarium), common ragweed (Ambrosia elatior), corn (Zea mays), cotton (Gossypium hirsutum), eastern black nightshade (Solanum ptycanthum), fall panicum (Panicum dichotomiflorum), field bindweed (Convolvulus arvensis), giant foxtail (Setaria faberii), hairy beggarticks (Bidens pilosa), ivyleaf morningglory (Ipomoea hederacea), johnsongrass (Sorghum halepense), ladysthumb smartweed (Polygonum persicaria), lambsquarters (Chenopodium album), large crabgrass (Digitaria sanguinalis), purple nutsedge (Cyperus rotundus), redroot pigweed (Amaranthus retroflexus), soybean (Glycine max), surinam grass (Brachiaria decumbens), velvetleaf (Abutilon theophrasti) and wild poinsettia (Euphorbia heterophylla).
# (§6) Treated plants and untreated controls were maintained in a greenhouse for approximately 14, to 21 days, after which all treated plants were compared to untreated controls and visually evaluated. Plant response ratings, summarized in Table C, were based upon a 0 to 100 scale where 0 was no effect and 100 was complete control. A dash response (−) means no test result.
# lambsquarters = test: Test E lambsquarters; assay type: in vivo, Chenopodium album; settings: Postemergence
# Procedure: as §1, §2, §3
# redroot pigweed = test: Test C postemergence redroot pigweed; assay type: in vivo, Amaranthus retroflexus; settings: 0 to 100 scale, 0 no effect, 100 complete control
# Procedure: as §1, with “grown for various periods of time before treatment” for “in the 1- to 4-leaf stage”
# as §5, §6
# downy brome = test: Test E downy brome; assay type: in vivo, Bromus tectorum; settings: Postemergence; for Plant response rating, Downy brome: 0 to 100 scale
# Method in brief: as §4
# arrowleaf sida = test: Test C postemergence arrowleaf sida; assay type: in vivo, Sida rhombifolia; settings: 0 to 100 scale, 0 no effect, 100 complete control
# Procedure: as §1, with “grown for various periods of time before treatment” for “in the 1- to 4-leaf stage”
# as §5, §6
# Russian thistle = test: Test E Russian thistle; assay type: in vivo, Salsola kali; settings: Postemergence
# Procedure: […] A mixture of sandy loam soil and greenhouse potting mix in a 60:40 ratio was used for the postemergence test.
# as §2, §3
# scentless chamomile = test: Test E scentless chamomile; assay type: in vivo, Matricaria inodora; settings: Postemergence
# Procedure: as §1, §2, §3
# fall panicum = test: Test C postemergence fall panicum; assay type: in vivo, Panicum dichotomiflorum; settings: 0 to 100 scale, 0 no effect, 100 complete control
# Method in brief: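 Compounds in a non-phytotoxic solvent with surfactant were sprayed postemergence on greenhouse-grown plants in 60:40 sandy loam/potting mix. After about 14 to 21 days, visual ratings against untreated controls on a 0 (no effect) to 100 (complete control) scale.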
# [1] = Rate 500 g/ha, 0 to 100 scale, 0 no effect, 100 complete control
# [2] = Rate 250 g/ha, 0 to 100 scale where 0 is no effect and 100 is complete control
# [3] = Rate 500 g/ha, 0 no effect, 100 complete control
# [4] = Rate 250 g/ha, 0 to 100 scale (0 no effect, 100 complete control)
compound,measurement,setting,value
CC(C)N(C(=O)n1oc(=O)n(C(C)C)c1=O)c1ccc(F)cc1 [Compound 131],"Plant response rating, Common poppy","common poppy; Rate 62 g/ha, 0 to 100 scale",65
same,"Plant response rating, Comnion poppy",common poppy; 0 to 100 scale,0
same,"Plant response rating, Common poppy",common poppy; [1],0
same,Common poppy plant response rating,common poppy; [2],0
same,"Plant response rating, LS canarygrass","littleseed canarygrass; Rate 62 g/ha, 0 to 100 scale",50
same,"Plant response rating, LS canarygrass","littleseed canarygrass; Rate 125 g/ha, 0 to 100 scale",0
same,"Plant response rating, LS canarygrass",littleseed canarygrass; [1],50
same,LS canarygrass plant response rating,littleseed canarygrass; [2],20
same,"Plant response rating, Sugar beet","sugar beet; Rate 62 g/ha, 0 to 100 scale",0
same,"Plant response rating, Sugar beet","sugar beet; Rate 125 g/ha, 0 to 100 scale",0
same,"Plant response rating, Sugar beet",sugar beet; [1],0
same,Sugar beet plant response rating,sugar beet; [2],0
same,"Plant response rating, Sourgrass",sourgrass; Rate 16 g/ha,90
same,Plant response rating I. morningglory,ivyleaf morningglory; Rate 140 g/ha,0
same,Plant response rating I. morningglory,ivyleaf morningglory; Rate 280 g/ha,0
same,Plant response rating I. morningglory,ivyleaf morningglory; Rate 560 g/ha,20
same,Plant response rating I. morningglory,ivyleaf morningglory; Rate 1120 g/ha,50
same,"Plant response rating, Lambsquarters","lambsquarters; Rate 62 g/ha, 0 to 100 scale",0
same,"Plant response rating, Lambsquarters","lambsquarters; Rate 125 g/ha, 0 to 100 scale",0
same,"Plant response rating, Lambsquarters",lambsquarters; [1],0
same,Lambsquarters plant response rating,lambsquarters; [2],0
same,"Plant response rating, Redroot pigweed",redroot pigweed; Rate 140 g/ha,10
same,"Plant response rating, Redroot pigweed",redroot pigweed; Rate 280 g/ha,10
same,"Plant response rating, Redroot pigweed",redroot pigweed; Rate 560 g/ha,20
same,"Plant response rating, Redroot pigweed",redroot pigweed; Rate 1120 g/ha,30
same,"Plant response rating, Downy brome",downy brome; Rate 62 g/ha,55
same,"Plant response rating, Downy brome",downy brome; Rate 125 g/ha,0
same,"Plant response rating, Downy brome",downy brome; [3],70
same,Downy brome plant response rating,downy brome; [2],50
same,Plant response rating Arrowleaf sida,arrowleaf sida; Rate 280 g/ha,10
same,Plant response rating Arrowleaf sida,arrowleaf sida; Rate 560 g/ha,30
same,Plant response rating Arrowleaf sida,arrowleaf sida; Rate 1120 g/ha,60
same,"Plant response rating, Russian thistle","Russian thistle; Rate 62 g/ha, 0 to 100 scale",10
same,"Plant response rating, Russian thistle","Russian thistle; Rate 125 g/ha, 0 to 100 scale",0
same,"Plant response rating, Russian thistle",Russian thistle; [1],0
same,Russian thistle plant response rating,Russian thistle; [2],0
same,"Plant response rating, Scentless chamo","scentless chamomile; Rate 62 g/ha, 0 to 100 scale",55
same,"Plant response rating, Scentless chamo","scentless chamomile; Rate 125 g/ha, 0 to 100 scale",0
same,"Plant response rating, Scentless chamo",scentless chamomile; [1],50
same,Scentless chamo plant response rating,scentless chamomile; [2],20
same,Plant response rating Fall panicum,fall panicum; Rate 140 g/ha,0
same,Plant response rating Fall panicum,fall panicum; Rate 280 g/ha,40
same,Plant response rating Fall panicum,fall panicum; Rate 560 g/ha,90
same,Plant response rating Fall panicum,fall panicum; Rate 1120 g/ha,90
CCn1c(=O)on(C(=O)N(c2ccccc2)C(C)C)c1=O [Compound 117],Plant response rating I. morningglory,ivyleaf morningglory; Rate 140 g/ha,0
same,Plant response rating I. morningglory,ivyleaf morningglory; Rate 280 g/ha,0
same,Plant response rating I. morningglory,ivyleaf morningglory; Rate 560 g/ha,0
same,Plant response rating I. morningglory,ivyleaf morningglory; Rate 1120 g/ha,0
same,"Plant response rating, Redroot pigweed",redroot pigweed; Rate 140 g/ha,0
same,"Plant response rating, Redroot pigweed",redroot pigweed; Rate 280 g/ha,0
same,"Plant response rating, Redroot pigweed",redroot pigweed; Rate 560 g/ha,0
same,"Plant response rating, Redroot pigweed",redroot pigweed; Rate 1120 g/ha,30
same,Plant response rating Arrowleaf sida,arrowleaf sida; Rate 140 g/ha,0
same,Plant response rating Arrowleaf sida,arrowleaf sida; Rate 280 g/ha,0
same,Plant response rating Arrowleaf sida,arrowleaf sida; Rate 560 g/ha,0
same,Plant response rating Arrowleaf sida,arrowleaf sida; Rate 1120 g/ha,50
same,Plant response rating Fall panicum,fall panicum; Rate 140 g/ha,0
same,Plant response rating Fall panicum,fall panicum; Rate 560 g/ha,40
same,Plant response rating Fall panicum,fall panicum; Rate 1120 g/ha,80
CC(C)N(C(=O)n1oc(=O)n(C(C)C)c1=O)c1ccc(Cl)cc1 [Compound 114],"Plant response rating, Comnion poppy",common poppy; 0 to 100 scale,0
same,"Plant response rating, Common poppy",common poppy; [4],10
same,"Plant response rating, Common poppy",common poppy; [1],20
same,"Plant response rating, LS canarygrass","littleseed canarygrass; Rate 125 g/ha, 0 to 100 scale",0
same,"Plant response rating, LS canarygrass",littleseed canarygrass; [4],30
same,"Plant response rating, LS canarygrass",littleseed canarygrass; [1],60
same,"Plant response rating, Sugar beet","sugar beet; Rate 125 g/ha, 0 to 100 scale",50
same,"Plant response rating, Sugar beet",sugar beet; [4],55
same,"Plant response rating, Sugar beet",sugar beet; [1],50
same,"Plant response rating, Lambsquarters","lambsquarters; Rate 125 g/ha, 0 to 100 scale",30
same,"Plant response rating, Lambsquarters",lambsquarters; [4],30
same,"Plant response rating, Lambsquarters",lambsquarters; [1],40
same,"Plant response rating, Downy brome",downy brome; Rate 125 g/ha,0
same,"Plant response rating, Downy brortie",downy brome; [4],0
same,"Plant response rating, Downy brome",downy brome; [3],30
same,"Plant response rating, Russian thistle","Russian thistle; Rate 125 g/ha, 0 to 100 scale",0
same,"Plant response rating, Russian thistle",Russian thistle; [4],0
same,"Plant response rating, Russian thistle",Russian thistle; [1],0
same,"Plant response rating, Scentless chamo","scentless chamomile; Rate 125 g/ha, 0 to 100 scale",0
same,"Plant response rating, Scentless chamo",scentless chamomile; [4],0
same,"Plant response rating, Scentless chamo",scentless chamomile; [1],0
Cc1cccc(C)c1-n1c(=O)on(C(=O)N(c2ccc(F)cc2)C(C)C)c1=O [Compound 18],"Plant response rating, Sourgrass",sourgrass; Rate 64 g/ha,100
